Data reported in patent US9061352B2, “Dry powder formulations and methods for treating pulmonary diseases” (priority 2010, dated 2015).

Columns and labels:
Type in all cases: physicochemical
[1] = Heat of solution in HBSS buffer; settings: for ΔH (kJ/mol), Average / ΔH (kcal/mol), Average / heat of solution ΔH: HBSS buffer; for ΔH (kJ/mol), Average / ΔH (kcal/mol), Average: per mol Ca for all powders except leucine (mol Leu); for ΔH (kJ/mol), Average / ΔH (kcal/mol), Average / Q (cal), Average / ΔT (deg. C.), Average: experiment #1; for Q (cal), Average / ΔT (deg. C.), Average: dissolution in HBSS buffer
[2] = Capsule emitted powder mass (CEPM) from dry powder inhaler; settings: for average CEPM, % of capsule fill weight: 9.2 Joules (60 L/min for 2 L), high resistance RS-01
From the text: (§1) Volume median diameter can also be measured using a method where the powder is emitted from a dry powder inhaler device. The equipment consisted of a Spraytec laser diffraction particle size system (Malvern, Worcestershire, UK), “Spraytec”. Powder formulations were filled into size 3 HPMC capsules (Capsugel V-Caps) by hand with the fill weight measured gravimetrically using an analytical balance (Mettler Tolerdo XS205). A capsule based passive dry powder inhalers (RS-01 Model 7, High resistance Plastiape S.p.A.) was used which had specific resistance of 0.036 kPa^1/2 LPM^−1. Flow rate and inhaled volume were set using a timer controlled solenoid valve with flow control valve (TPK2000, Copley Scientific). Capsules were placed in the dry powder inhaler, punctured and the inhaler sealed to the inlet of the laser diffraction particle sizer. The steady air flow rate through the system was initiated using the TPK2000 and the particle size distribution was measured via the Spraytec at 1 kHz for at least 2 seconds and up to the total inhalation duration. Particle size distribution parameters calculated included the volume median diameter (Dv50) and the geometric standard deviation (GSD) and the fine particle fraction (FPF) of particles less than 5 micrometers in diameter. At the completion of the inhalation duration, the dry powder inhaler was opened, the capsule removed and re-weighed to calculate the mass of powder that had been emitted from the capsule during the inhalation duration (capsule emitted powder mass or CEPM).
A measure of the emission properties of the powders was determined by using the information obtained from the Andersen Cascade Impactor tests. The filled capsule weight was recorded at the beginning of the run and the final capsule weight was recorded after the completion of the run. The difference in weight represented the amount of powder emitted from the capsule (CEPM or capsule emitted powder mass). The emitted dose was calculated by dividing the amount of powder emitted from the capsule by the total initial particle mass in the capsule. While the standard CEPM was measured at 60 L/min, it was also measured at 15 L/min, 20 L/min, or 30 L/min.
Powder formulations were filled into size 3 HPMC capsules (Capsugel V-Caps) by hand with the fill weight measured gravimetrically using an analytical balance (Mettler Tolerdo XS205). […] Two capsule based passive dry powder inhalers (RS-01 Model 7, Low resistance Plastiape S.p.A. and RS-01 Model 7, High resistance Plastiape S.p.A.) were used which had specific resistances of 0.020 and 0.036 kPa1/2/LPM which span the typical range of dry powder inhaler resistance. Flow rate and inhaled volume were set using a timer controlled solenoid valve with flow control valve (TPK2000, Copley Scientific). Capsules were placed in the appropriate dry powder inhaler, punctured and the inhaler sealed to the inlet of the laser diffraction particle sizer (Spraytec, Malvern). The steady air flow rate through the system was initiated using the TPK2000 and the particle size distribution was measured via the Spraytec at 1 kHz for the durations at least 2 seconds and up to the total inhalation duration. Particle size distribution parameters calculated included the volume median diameter (Dv50) and the geometric standard deviation (GSD) and the fine particle fraction (FPF) of particles less than 5 micrometers in diameter. At the completion of the inhalation duration, the dry powder inhaler was opened, the capsule removed and re-weighed to calculate the mass of powder that had been emitted from the capsule during the inhalation duration. At each testing condition, 5 replicate capsules were measured and the results of Dv50, FPF and capsule emitted powder mass (CEPM) were averaged. […]

[3] = Emitted geometric particle size from dry powder inhaler by Spraytec (Dv50, GSD, FPF<5 μm); settings: for average Dv50: 9.2 Joules; for Dv50: measured lower energies
From the text: as §1
The previous description of the use of the Spraytec was for what is described as its “closed bench configuration”. Alternatively, the Spraytec can be used in its “open bench configuration”. In the open bench configuration, capsules were placed in the dry powder inhaler, punctured and the inhaler sealed inside a cylinder. The cylinder was connected to a positive pressure air source with steady air flow through the system again measured with a mass flow meter and its duration controlled with a timer controlled solenoid valve. The exit of the dry powder inhaler was exposed to room pressure and the resulting aerosol jet passed through the laser of the diffraction particle sizer (Spraytec) in its open bench configuration before being captured by a vacuum extractor. The steady air flow rate through the system was initiated using the solenoid valve and the particle size distribution was measured via the Spraytec at 1 kHz for the duration of the single inhalation maneuver with a minimum of 2 seconds, as in the closed bench configuration. When data are reported in the examples as being measured by the Spraytec, they are from the closed bench configuration unless otherwise noted.
The volume median diameter (Dv50) of the powder after it emitted from a dry powder inhaler, which may also be referred to as volume median geometric diameter (VMGD), was determined using a laser diffraction technique via the Spraytec diffractometer (Malvern, Inc., Worcestershire, UK). Powder was filled into size 3 capsules (V-Caps, Capsugel) and placed in a capsule based dry powder inhaler (RS01 Model 7 High resistance, Plastiape, Italy), or DPI, which was connected with an airtight seal to the inhaler adapter of the Spraytec. A steady airflow rate was drawn through the DPI typically at 60 L/min for a set duration, typically of 2 seconds controlled by a timer controlled solenoid (TPK2000, Copley, Scientific, UK). Alternatively, the airflow rate drawn through the DPI was sometimes run at 15 L/min, 20 L/min, or 30 L/min. The outlet aerosol then passed perpendicularly through the laser beam as an internal flow. The resulting geometric particle size distribution of the aerosol was calculated from the software based on the measured scatter pattern on the photodetectors with samples typically taken at 1000 Hz for the duration of the inhalation. The Dv50, GSD, FPF<5.0 μm measured were then averaged over the duration of the inhalation. […]

[4] = Fine particle fraction by two-stage collapsed Andersen Cascade Impactor (ACI-2); settings: spray dried from 70% ethanol, 50 g/L
[5] = Volume median diameter (x50) and dispersibility ratios by HELOS/RODOS laser diffraction
Description: Volume median diameter (×50 or Dv50), which may also be referred to as volume median geometric diameter (VMGD), was determined using a laser diffraction technique. The equipment consisted of a HELOS diffractometer and a RODOS dry powder disperser (Sympatec, Inc., Princeton, N.J.). The RODOS disperser applies a shear force to a sample of particles, controlled by the regulator pressure (typically set at 1.0 bar) of the incoming compressed dry air. The pressure settings may be varied to vary the amount of energy used to disperse the powder. For example, the regulator pressure may be varied from 0.2 bar to 4.0 bar; and the orifice ring pressure may be varied from 5.00 mbar to 115.00 mbar. Powder sample is dispensed from a microspatula into the RODOS funnel. The dispersed particles travel through a laser beam where the resulting diffracted light pattern produced is collected, typically using an R1 lens, by a series of detectors. The ensemble diffraction pattern is then translated into a volume-based particle size distribution using the Fraunhofer diffraction model, on the basis that smaller particles diffract light at larger angles. Using this method geometric standard deviation (GSD) for the volume mean geometric diameter was also determined.

[6] = RS.01.HR, fill 25 mg, 15 LPM, 4 s, 0.29 J
[7] = RS.01.HR, fill 25 mg, 20 LPM, 3 s, 0.51 J
[8] = RS.01.HR, fill 25 mg, 30 LPM, 2 s, 1.15 J
[9] = RS.01.HR, fill 25 mg, 60 LPM, 2 s, 9.18 J
[10] = RS.01.HR, fill 40 mg, 15 LPM, 4 s, 0.29 J
[11] = RS.01.HR, fill 40 mg, 20 LPM, 3 s, 0.51 J
[12] = RS.01.HR, fill 40 mg, 30 LPM, 2 s, 1.15 J
[13] = RS.01.HR, fill 40 mg, 60 LPM, 2 s, 9.18 J
[14] = RS.01.LR, fill 25 mg, 60 LPM, 2 s, 2.85 J
[15] = RS.01.LR, fill 40 mg, 60 LPM, 2 s, 2.85 J
[16] = all measured energies below 9.2 Joules, 25 and 40 mg fill

Compound: CC(C)C[C@H](N)C(=O)O [Leucine]
- ΔH (kJ/mol), Average [1]: -6 kJ/mol
- ΔH (kcal/mol), Average [1]: -1.5 kcal/mol
- Q (cal), Average [1]: 0.37 cal
- ΔT (deg. C.), Average [1]: 0.003 deg. C.

Compound: albuterol sulfate [Micronized Albuterol]
- average CEPM, % of capsule fill weight ([2]; 25 mg fill): 93%
- average CEPM, % of capsule fill weight ([2]; 40 mg fill): 84%
- Mean CEPM [2, 6]: 3.12 mg
- Mean CEPM [2, 7]: 5.00 mg
- Mean CEPM [2, 8]: 7.08 mg
- Mean CEPM [2, 9]: 23.18 mg
- Mean CEPM [2, 10]: 2.43 mg
- Mean CEPM [2, 11]: 4.97 mg
- Mean CEPM [2, 12]: 8.55 mg
- Mean CEPM [2, 13]: 33.40 mg
- Mean CEPM [2, 14]: 15.28 mg
- Mean CEPM [2, 15]: 18.88 mg
- CEPM [2, 16]: below 10 mg
- CEPM, % of capsule fill weight [2, 16]: < 30%
- average Dv50 ([3]; 25 mg fill): 1.8 μm
- Dv50 ([3]; 25 mg fill): 3.9 μm
- average Dv50 ([3]; 40 mg fill): 1.6 μm
- Dv50 ([3]; 40 mg fill): 3.1 μm
- Mean Dv(50) (μm) [3, 6]: 16.76 μm
- Mean FPF, % <5 μm [3, 6]: 13.00%
- Mean Dv(50) (μm) [3, 7]: 8.40 μm
- Mean FPF, % <5 μm [3, 7]: 32.10%
- Mean Dv(50) (μm) [3, 8]: 3.86 μm
- Mean FPF, % <5 μm [3, 8]: 59.44%
- Mean Dv(50) (μm) [3, 9]: 1.77 μm
- Mean FPF, % <5 μm [3, 9]: 81.65%
- Mean Dv(50) (μm) [3, 10]: 17.63 μm
- Mean FPF, % <5 μm [3, 10]: 10.73%
- Mean Dv(50) (μm) [3, 11]: 6.34 μm
- Mean FPF, % <5 μm [3, 11]: 42.24%
- Mean Dv(50) (μm) [3, 12]: 3.13 μm
- Mean FPF, % <5 μm [3, 12]: 67.18%
- Mean Dv(50) (μm) [3, 13]: 1.60 μm
- Mean FPF, % <5 μm [3, 13]: 84.30%
- Mean Dv(50) (μm) [3, 14]: 2.57 μm
- Mean FPF, % <5 μm [3, 14]: 75.01%
- Mean Dv(50) (μm) [3, 15]: 2.62 μm
- Mean FPF, % <5 μm [3, 15]: 73.98%

Compound: [Cl-].[Cl-].[Mg+2] [Pure magnesium chloride, magnesium chloride]
- fine particle fraction less than 5.6 microns [4]: 19%
- median volume particle size ([5]; spray dried from 70% ethanol, 50 g/L): 4 microns
- median particle size ([5]; spray dried from D.I. water, 20 g/L): 21 microns

Compound: O.O.[Ca+2].[Cl-].[Cl-] [CaCl2•2H2O]
- ΔH (kJ/mol), Average [1]: -50.5 kJ/mol
- ΔH (kcal/mol), Average [1]: -12.1 kcal/mol
- Q (cal), Average [1]: 2.93 cal
- ΔT (deg. C.), Average [1]: 0.024 deg. C.

Compound: O.O.[Ca+2].[Cl-].[Cl-] [raw calcium chloride dihydrate, calcium chloride dihydrate]
- heat of solution ΔH ([1]; first experiment): -12.1 kcal/mol
- heat of solution ΔH ([1]; second experiment): -8.4 kcal/mol
